In ChEMBL document CHEMBL5230122, “Natural products and other inhibitors of F1FO ATP synthase” (Eur J Med Chem, 2020):
Square brackets hold non-standard residues; d marks the D form. Peptide text beside a SMILES is read from it. * marks the point of attachment. X3 = CC(C)C[C@@H](CN1CCC[N+]2=C1CCC2)N*; X4 = CC(C)C[C@@H](C[N+]1=C2CCCN2CCC1)N*; Pip = O=C(O)[C@@H]1CCCCN1; Iva = CC[C@](C)(N)C(=O)O; Aib = CC(C)(N)C(=O)O; βAla = NCCC(=O)O

What was measured:
[1] = Antiproliferative activity against human U87G cells assessed as reduction in cell viability incubated for 72 hrs by MTT assay; type: functional, cell-based
HCT-116 [2] = assay: Antiproliferative activity against human HCT-116 cells assessed as reduction in cell viability incubated for 72 hrs by MTT assay; type: functional, cell-based; settings: HCT-116, 72 h
SNU-398 = assay: Anticancer activity against human SNU-398 cells expressing high level of SALL4 assessed as reduction in cell viability incubated for 72 hrs by CellTiter-Glo assay; type: functional, cell-based; settings: SNU-398, 72 h
MDA-MB-231 = assay: Antiproliferative activity against human MDA-MB-231 cells assessed as reduction in cell viability incubated for 48 hrs by MTT assay; type: functional, cell-based; settings: MDA-MB-231, 48 h
MCF7 = assay: Antitumor activity against human MCF7 cells assessed as reduction in cell viability incubated for 24 hrs by MTT assay; type: functional, cell-based; settings: MCF7, 24 h
K562 = assay: Antitumor activity against human K562 cells assessed as reduction in cell viability incubated for 72 hrs by MTT assay; type: functional, cell-based; settings: K562, 72 h
HCT-116 [3] = assay: Antitumor activity against human HCT-116 cells assessed as reduction in cell viability incubated for 72 hrs by MTT assay; type: functional, cell-based; settings: HCT-116, 72 h
NCI-H292 [4] = assay: Antiproliferative activity against human NCI-H292 cells assessed as reduction in cell viability by MTT assay; type: functional, cell-based
HeLa = assay: Antiproliferative activity against human HeLa cells assessed as reduction in cell viability by MTT assay; type: functional, cell-based
Bos taurus = species on record: Bos taurus; assay: Inhibition of bovine F0F1-ATPase at 50 uM
GBM = assay: Anticancer activity against human GBM cells carrying high-throughput GBM sphere assessed as reduction in cell viability incubated for 96 hrs by Cell-Titer-Glo assay; type: functional, cell-based
HL-60 = assay: Anticancer activity against human HL-60 cells assessed inhibition of cell proliferation incubated for 48 hrs by MTT assay; type: functional, cell-based; settings: HL-60, 48 h
[5] = Inhibition of mouse liver mitochondrial ATP synthase by microplate immuno-capture ELISA assay; type: mitochondria, Mitochondria
NCI-H292 [6] = assay: Anticancer activity against human NCI-H292 cells assessed as reduction in cell proliferation incubated for 48 hrs by Calcein AM and Pluronic F-127 staining based fluorescence plate reader analysis; type: functional; settings: NCI-H292, 48 h
[7] = Cytotoxicity against mouse L929 cells assessed as reduction in cell viability; type: toxicity, cell-based
N2a = assay: Antiproliferative activity against mouse Neuro2a cells assessed as reduction in cell viability incubated for 48 hrs by MTT assay; type: functional, cell-based
[8] = Antiproliferative activity against human Keratinocyte assessed as inhibition of cell proliferation incubated for 2 days by Beckman Coulter analysis; type: functional, cell-based; settings: 48 h
P388 = assay: Anticancer activity against mouse P388 cells assessed as reduction in cell viability incubated for 96 hrs by MTT assay; type: functional, cell-based; settings: P388, 96 h

CO[C@H]1[C@H](O[C@@H]2C[C@@H]3C[C@H](O)[C@]4(O)C(=O)O[C@@H](C[C@H](O)[C@@H]5C[C@H](C)[C@H](/C=C\C=C\[C@H](C)C[C@H](C2)O3)O5)[C@H]4O)O[C@@H](C)[C@H](OCCCC=O)[C@H]1OCCCC=O
IC50 [1]: > 3000 nM | IC50 (HCT-116 [2]): > 3000 nM

CC[C@](C)(NC(=O)[C@H](CC(C)C)NC(=O)[C@H](C)NC(=O)C(C)(C)NC(=O)[C@@H]1CCCCN1C(=O)C(C)(C)NC(=O)C(C)(C)NC(=O)CNC(=O)CCNC(=O)[C@H](CC(C)C)NC(=O)C(C)(C)NC(=O)[C@](C)(CC)NC(=O)[C@@H]1CCCCN1C(=O)C(C)(C)NC(=O)[C@@H]1CCCCN1C(C)=O)C(=O)N[C@@H](CC(C)C)C[N+]1=C2CCCN2CCC1 [EFRAPEPTIN G] (Ac-[Pip][Aib][Pip][Iva][Aib]L[βAla]G[Aib][Aib][Pip][Aib]AL[Iva]-X4)
IC50 (SNU-398): 9 nM

CC[C@H]1O[C@@]2(C)[C@H](O)[C@@]1(C)O[C@@H](/C=C/C=C/C=C/c1oc(=O)cc(OC)c1C)[C@@H]2O
IC50 (MDA-MB-231): 8790 nM

O=C(Oc1cc(/C=C/c2ccc(O)cc2)cc(OC(=O)c2ccco2)c1)c1ccco1
IC50 (MCF7): 42700 nM

CCC(=O)[C@@H](C)[C@H](OC(C)=O)[C@@H](C)/C=C/C(=O)O[C@@H]1[C@H](C)[C@H](CC[C@H](/C=C/C=C/C[C@@H](C)[C@H](OC(C)=O)[C@@]2(C)OC=C(C)C2=O)CC)O[C@]2(CC[C@H](C)[C@H](C[C@@H](C)OC(C)=O)O2)[C@H]1C
IC50 (K562): 900 nM | IC50 (HCT-116 [3]): 3100 nM

COC[C@@H](C[C@H]1O[C@@](O)([C@H](O)[C@@H]2C[C@H](OC)[C@@H](O)CC/C=C(C)/C=C/[C@@H](O[C@@H]3O[C@@H](C)[C@H](OC)[C@@H](OC(=O)CCC(=O)O)[C@@H]3O)[C@H](C)/C=C(C)/C=C(C)/C=C(\C)C(=O)O2)[C@H](C)[C@@H](O)[C@H]1C)O[C@H]1C[C@](C)(O)[C@@H](O[C@H]2C[C@@H](OC)[C@H](O)[C@@H](C)O2)[C@H](C)O1
IC50 (NCI-H292 [4]): 82 nM | IC50 (HeLa): 260 nM

COc1ccc(/C=C/c2cc(OC)cc(OCCCC[P+](c3ccccc3)(c3ccccc3)c3ccccc3)c2)cc1
inhibition (Bos taurus): > 40%

CCc1n(CC(=O)O[C@@H]2C[C@H](C)CC[C@H]2C(C)C)c2ccccc2[n+]1C
IC50 (GBM): 150 nM

COc1cc(/C=C/c2ccc(OCCCC[P+](c3ccccc3)(c3ccccc3)c3ccccc3)cc2)cc(OC)c1
inhibition (Bos taurus): > 40%

Ic1ccc(-c2c3ccc(=[N+]4CCCCC4)cc-3oc3cc(N4CCCCC4)ccc23)cc1
IC50 (HL-60): 100 nM | IC50 [5]: 3900 nM

CC[C@](C)(NC(=O)[C@H](CC(C)C)NC(=O)[C@H](C)NC(=O)C(C)(C)NC(=O)[C@@H]1CCCCN1C(=O)C(C)(C)NC(=O)C(C)(C)NC(=O)CNC(=O)CCNC(=O)[C@H](CC(C)C)NC(=O)[C@](C)(CC)NC(=O)[C@](C)(CC)NC(=O)[C@@H]1CCCCN1C(=O)C(C)(C)NC(=O)[C@@H]1CCCCN1C(C)=O)C(=O)N[C@@H](CC(C)C)CN1CCC[N+]2=C1CCC2 (Ac-[Pip][Aib][Pip][Iva][Iva]L[βAla]G[Aib][Aib][Pip][Aib]AL[Iva]-X3)
IC50 (SNU-398): 6 nM

COC[C@@H](C[C@H]1O[C@@](O)([C@H](O)[C@@H]2C[C@H](OC)[C@@H](O)CC/C=C(C)/C=C/[C@@H](O[C@@H]3O[C@@H](C)[C@H](OC)[C@@H](O)[C@@H]3O)[C@H](C)/C=C(C)/C=C(C)/C=C(/C)C(=O)O2)[C@H](C)[C@@H](O)[C@H]1C)O[C@H]1C[C@](C)(O)[C@@H](O[C@H]2C[C@@H](OC)[C@H](O)[C@@H](C)O2)[C@H](C)O1
IC50 (NCI-H292 [6]): 150 nM

CC[C@@H]1O[C@@](C)(/C=C/C=C/C=C/c2cc(OC)c(C)c(=O)o2)[C@@H](O)[C@]1(C)O
IC50 (MDA-MB-231): > 50000 nM

COC[C@@H](C[C@H]1O[C@@](O)([C@H](O)[C@@H]2C[C@H](OC)[C@@H](O)CC/C=C(C)/C=C/[C@@H](O[C@@H]3O[C@@H](C)[C@H](OC)[C@@H](O)[C@@H]3OC(=O)CCC(=O)O)[C@H](C)/C=C(C)/C=C(C)/C=C(\C)C(=O)O2)[C@H](C)[C@@H](O)[C@H]1C)O[C@H]1C[C@](C)(O)[C@@H](O[C@H]2C[C@@H](OC)[C@H](O)[C@@H](C)O2)[C@H](C)O1
IC50 (NCI-H292 [4]): 91 nM | IC50 (HeLa): 240 nM

CC[C@](C)(NC(=O)[C@@H]1CCCCN1C(=O)C(C)(C)NC(=O)[C@@H]1CCCCN1C(C)=O)C(=O)NC(C)(C)C(=O)N[C@@H](CC(C)C)C(=O)NCCC(=O)NCC(=O)NC(C)(C)C(=O)NC(C)(C)C(=O)N1CCCC[C@H]1C(=O)NC(C)(C)C(=O)N[C@@H](C)C(=O)N[C@@H](CC(C)C)C(=O)NC(C)(C)C(=O)N[C@@H](CC(C)C)CN1CCC[N+]2=C1CCC2 (Ac-[Pip][Aib][Pip][Iva][Aib]L[βAla]G[Aib][Aib][Pip][Aib]AL[Aib]-X3)
IC50 (SNU-398): 5 nM

COc1cc(=O)oc(/C=C/C=C/C=C/[C@@H]2O[C@]3(C)[C@@H](OC(C)=O)[C@](C)(O[C@@H]3[C@@H](C)O)[C@H]2O)c1C
IC50 (MDA-MB-231): 80 nM

COC[C@@H](C[C@H]1O[C@@](O)(C[C@@H]2C[C@H](OC)CCC/C=C(C)/C=C/[C@@H](O[C@@H]3O[C@@H](C)[C@H](OC)[C@@H](O)[C@@H]3O)[C@H](C)/C=C(C)/C=C(C)/C=C(\C)C(=O)O2)[C@H](C)[C@@H](O)[C@H]1C)O[C@H]1C[C@](C)(O)[C@@H](O[C@H]2C[C@@H](OC)[C@H](O)[C@@H](C)O2)[C@H](C)O1
IC50 (NCI-H292 [6]): 24 nM

CC(=O)Oc1ccc(/C=C/c2cc(OCCCC[P+](c3ccccc3)(c3ccccc3)c3ccccc3)cc(OC(C)=O)c2)cc1
inhibition (Bos taurus): > 40%

COC[C@H](O)C[C@H]1O[C@@](O)(C[C@@H]2C[C@H](OC)CCC/C=C(C)/C=C/[C@@H](O[C@@H]3O[C@@H](C)[C@@H](OC)[C@@H](O)[C@@H]3O)[C@H](C)/C=C(C)/C=C(C)/C=C(\C)C(=O)O2)[C@H](C)[C@@H](O)[C@H]1C
IC50 (NCI-H292 [6]): > 1000 nM

COC[C@@H](C[C@H]1O[C@@](O)([C@H](O)[C@@H]2C[C@H](OC)[C@@H](O)CC/C=C(C)/C=C/[C@@H](O[C@@H]3O[C@@H](C)[C@H](OC)[C@@H](O)[C@@H]3O)[C@H](C)/C=C/C=C(C)/C=C(\C)C(=O)O2)[C@H](C)[C@@H](O)[C@H]1C)O[C@H]1C[C@](C)(O)[C@@H](O[C@H]2C[C@@H](OC)[C@H](O)[C@@H](C)O2)[C@H](C)O1
IC50 (NCI-H292 [6]): 110 nM

Oc1ccc(/C=C/c2cc(O)cc(O)c2)cc1 [RESVERATROL]
IC50 (MCF7): 80000 nM

CC(=O)Oc1cc(/C=C/c2ccc(OCCCC[P+](c3ccccc3)(c3ccccc3)c3ccccc3)cc2)cc(OC(C)=O)c1
inhibition (Bos taurus): > 40%

CC(C)[C@@H]1CC[C@@H](C)C[C@H]1OC(=O)Cn1c(-c2cccc(C(F)(F)F)c2)[n+](C)c2ccccc21
IC50 (GBM): 470 nM

CCC[C@H](O)[C@@H](C)C(=O)NC/C=C\C[C@@H](C)[C@@H](O)[C@H](C)[C@@H](O)C/C=C\C[C@H](C)[C@H]1Cc2cc(OC)cc(O)c2C(=O)O1
IC50 [7]: > 1 µg/mL

CO[C@H]1[C@H](O[C@@H]2C[C@@H]3C[C@H](OCCCC=O)[C@@]4(O)C[C@H](C[C@H](O)[C@@H]5C[C@H](C)[C@H](/C=C\C=C\[C@H](C)C[C@H](C2)O3)O5)OC4=O)O[C@@H](C)[C@H](O)[C@H]1O
IC50 [1]: 61 nM | IC50 (HCT-116 [2]): 54 nM | IC50 (N2a): 84 nM

CN1C(=O)C(Cc2ccccc2-c2ccccc2)N=C(c2ccc(O)cc2)c2cc(Cl)ccc21 (centres undefined)
EC50 [8]: 2200 nM

CN1C(=O)C(Cc2ccc3ccccc3c2)N=C(c2ccc(O)cc2)c2cc(Cl)ccc21 (centres undefined)
EC50 [8]: 3100 nM

c1csc(-c2c3ccc(=[N+]4CCCCC4)cc-3oc3cc(N4CCCCC4)ccc23)c1
IC50 (HL-60): 100 nM | IC50 [5]: 3000 nM

CC/C(C)=C(\NC(=O)[C@@H](NC(=O)CC(=O)[C@@H](C)CC(C)C)[C@](C)(O)CC)C(=O)NCC(=O)N/C(C(=O)N[C@@H](C(=O)N[C@@H](C(=O)N[C@@H](C(=O)N[C@H](C(=O)N/C(C(=O)N[C@H](C)C(=O)N[C@@H](C(=O)N[C@H](C(=O)NC(C(=O)N[C@H](CN(C)C)C(C)C)=C(C)C)C(C)C)C(C)C)=C(\C)CC)C(C)(C)O)C(C)(C)O)[C@@H](C)CC)C(C)C)=C(\C)CC
IC50 (P388): 0.88 nM

CN1C(=O)C(Cc2ccc3ccccc3c2)N=C(c2ccc3[nH]c(=O)[nH]c3c2)c2cc(Cl)ccc21 (centres undefined)
EC50 [8]: 2100 nM

COc1cc(=O)oc(/C=C/C=C/C=C/[C@]2(C)O[C@]3(C)[C@@H](O)[C@](C)(O[C@@H]3C)[C@H]2O)c1C
IC50 (MDA-MB-231): > 5430 nM
